Assay results as given in patent publication US12479836B2, “Sphingosine-1-phosphate receptor agonist, preparation method therefor, and pharmaceutical composition containing same as active ingredient” (priority 2019, dated 2025).

The compounds below were run against T1, human sphingosine-1-phosphate 1 receptor (S1P1 receptor) (Homo sapiens, UniProt P21453) (assay: Ca2+ inducing ability (calcium increase, Calcium 5 assay kit) in CHO cells overexpressing human S1P1 receptor).
T1 construct: host or cells: CHO-K1
T1 sequence (P21453 whole entry): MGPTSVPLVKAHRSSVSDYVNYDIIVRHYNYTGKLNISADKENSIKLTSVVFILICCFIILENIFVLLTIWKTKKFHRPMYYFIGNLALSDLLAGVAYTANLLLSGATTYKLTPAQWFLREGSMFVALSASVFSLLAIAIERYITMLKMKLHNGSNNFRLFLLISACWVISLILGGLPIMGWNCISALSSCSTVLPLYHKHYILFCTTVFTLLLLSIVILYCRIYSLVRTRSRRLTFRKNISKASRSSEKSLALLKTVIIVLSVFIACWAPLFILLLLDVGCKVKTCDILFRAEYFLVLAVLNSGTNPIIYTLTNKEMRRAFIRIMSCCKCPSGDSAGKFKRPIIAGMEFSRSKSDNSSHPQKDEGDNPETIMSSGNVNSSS
Assay type: cell-based
Experimental: Experimental Example: Evaluation of Ca^2+ Inducing Ability of a Test Compound Using a Cell Line Expressing Human Sphingosine-1-Phosphate
It is a functional test method in which a therapeutic efficacy of an agonist compound is determined by an increase in calcium in CHO (Chinese hamster ovary) cells, which overexpress human sphingosine-1-phosphate 1 receptor (S1P1 receptor) that react with sphingosine-1-phosphate (S1P). […] coupled to Gi protein that reacts with the S1P1 receptor and increases intracellular calcium concentration. CHO-K1 cells, which are used for preparing a stable cell line, show no change in the calcium concentration by S1P, and thus they are good for checking signals from human S1P receptors after transfecting the cells with each subtype of the receptors.
To prepare CHO cells which overexpress human S1P1-S1P5, human clones for each subtype having HA at the N terminal residue (S1P1: EDG010 TN00, S1P2: EDG020TN00, S1P3: EDG030TN00, S1P4: EDG060TN00, S1P5: EDG080TN00) were purchased from Missouri S&T cDNA Resource Center and co-transfected with G-protein alpha subunit (G-alpha-16) into CHO-K1 cells. After separating cells by fluorescence-activated cell sorting (FACS, LK BioScience, JSAN) using HA-antibodies (MACS, Anti-HA-PE), they were selectively cultured in the medium with 10% FBS (Gibco, USA), 0.5 mg/mL Geneticin (Gibco) and 0.2 mg/mL Hygromycin B F12 (Gibco) to obtain the desired cells.
A calcium measurement kit (Calcium 5 assay kit, Molecular Devices) was used to select an agonist compound. The principle of calcium measurement is that calcium-sensitive dyes are applied to cells, they enter into the cytoplasm of the cells during incubation, and when a ligand binds to a certain receptor to release calcium into the cytoplasm, the dyes bind to said calcium to induce fluorescence which is measured. This test method can sensitively measure only the intracellular calcium concentration change because any change that may occur outside the cells is masked by a masking dye.
The experimental procedure was as follows. One day before calcium measurement, CHO cells overexpressing hS1P1-hS1P5 were dispensed into a 96-well plate (bottom clear black well) in 3×10^4 cells per well and cultured at 37° C. under 5% carbon dioxide condition for one day. 100 μl of calcium dyes mixed with Assay Buffer (1×HBSS, 20 mM HEPES, 2.5 mM probenecid, pH 7.4) were dispensed into culture solution in well and cultured at 37° C. for one hour. Test compounds were dissolved in 100% DMSO to prepare 1 μl solution per each concentration, and each solution was mixed with 199 μl Assay Buffer such that the concentrations were […]. The plate cultured with the calcium dyes was put into FlaxstationII (Molecular Devices), and the prepared test compounds (the final concentrations of the test compounds: 10, 1, 0.1, 0.01, 0.001 and 0.0001 μM) were programmed to be automatically inoculated in 50 μl per each well. For a total of 90 seconds, relative fluorescence unit (RFU) values were measured. The value of Reference (S1P substance 1 μM) deducting the blank value was set as 100%, and EC50 values of the test compounds were calculated by prism.
Compound `CC(C)n1nc(Cl)c2cc(COc3ccc4c(c3)OCC(CN(C)CC(=O)O)=C4)ccc21` [Example 1, {[7-(3-chloro-1-isopropyl-1H-indazol-5-ylmethoxy)-2H-chromene-3-ylmethyl]-methyl-amino}-acetic acid] has an EC50 of 4.07 nM.
`CC(C)n1nc(Cl)c2cc(COc3ccc4c(c3)OCC(CN3CC(C(=O)O)C3)=C4)ccc21` [Example 2, 1-[7-(3-chloro-1-isopropyl-1H-indazol-5-ylmethoxy)-2H-chromene-3-ylmethyl]-azetidin-3-carboxylic acid] gave an EC50 of 2.09 nM.
For `CCCn1nc2ccc(COc3ccc4c(c3)OCC(CN3CC(C(=O)O)C3)=C4)cc2c1Cl` [Example 3, 1-[7-(3-chloro-2-propyl-2H-indazol-5-ylmethoxy)-2H-chromene-3-ylmethyl]-azetidin-3-carboxylic acid], the EC50 was 70.8 nM.
`CC(C)n1nc(Cl)c2cc(COc3ccc4c(c3)OCC(CN3CCC(C(=O)O)CC3)=C4)ccc21` [Example 4, 1-[7-(3-chloro-1-isopropyl-1H-indazol-5-ylmethoxy)-2H-chromene-3-ylmethyl]-piperidin-4-carboxylic acid] was tested, and the EC50 was 9.12 nM.
`CC(C)n1nc(Cl)c2cc(COc3ccc4c(c3)OCC(CN3CCC[C@@H](C(=O)O)C3)=C4)ccc21` [Example 5, (R)-1-[7-(3-chloro-1-Isopropyl-1H-indazol-5-ylmethoxy)-2H-chromene-3-ylmethyl]-piperidin-3-carboxylic acid] showed an EC50 of 11 nM.
`CC(C)n1nc(Cl)c2cc(COc3ccc4c(c3)OCC(CN3CCC[C@H](C(=O)O)C3)=C4)ccc21` [Example 6, (S)-1-[7-(3-chloro-1-H-isopropyl-1H-indazol-5-ylmethoxy)-2H-chromene-3-ylmethyl]-piperidin-3-carboxylic acid] showed an EC50 of 12.9 nM.
`CC(C)n1nc(Cl)c2cc(COc3ccc4c(c3)OCC(CN3CC[C@H](C(=O)O)C3)=C4)ccc21` [Example 7, (S)-1-[7-(3-chloro-1-H-isopropyl-1H-indazol-5-ylmethoxy)-2H-chromene-3-ylmethyl]-pyrrolidin-3-carboxylic acid] was tested, and the EC50 was 5.75 nM.
With `CC(C)n1nc(Cl)c2cc(COc3ccc4c(c3)OCC(CN3CC(CCl)(C(=O)O)C3)=C4)ccc21` [Example 8, 1-[7-(3-chloro-1-isopropyl-1H-indazol-5-ylmethoxy)-2H-chromene-3-ylmethyl]-chloromethyl-azetidin-3-carboxylic acid] the EC50 was 6.31 nM.
With `CC(C)n1nc(Cl)c2cc(COc3ccc4c(c3)OCC(CN3CC[C@@H](C(=O)O)C3)=C4)ccc21` [Example 9, (R)-1-[7-(3-chloro-1-Isopropyl-1H-indazol-5-ylmethoxy)-2H-chromene-3-ylmethyl]-pyrrolidin-3-carboxylic acid] the EC50 was 14.4 nM.
With `CC1=C(CN2CCC(C(=O)O)CC2)COc2cc(OCc3ccc4c(c3)c(Cl)nn4C(C)C)ccc21` [Example 10, 1-[7-(3-chloro-1-Isopropyl-1H-indazol-5-ylmethoxy)-4-methyl-2H-chromene-3-ylmethyl]-piperidin-4-carboxylic acid] the EC50 was 2.75 nM.
With `CC(C)n1nc(Cl)c2cc(COc3ccc4c(c3)OCC(CN3CCC(C(=O)O)CC3)=C4Cl)ccc21` [Example 11, 1-[4-chloro-7-(3-chloro-1-H-isopropyl-1H-indazol-5-ylmethoxy)-2H-chromene-3-ylmethyl]-piperidin-4-carboxylic acid] the EC50 was 8.32 nM.
For `CC(C)n1nc(Cl)c2cc(COc3cc(F)c4c(c3)OCC(CN3CCC(C(=O)O)CC3)=C4)ccc21` [Example 12, 1-[7-(3-chloro-1-H-isopropyl-1H-indazol-5-ylmethoxy)-5-fluoro-2H-chromene-3-ylmethyl]-piperidin-4-carboxyl acid], the EC50 was 14.4 nM.
`CC(C)n1nc(C(F)(F)F)c2cc(COc3ccc4c(c3)OCC(CN3CCC(C(=O)O)CC3)=C4)ccc21` [Example 13, 1-[7-(1-Isopropyl-3-trifluoromethyl-1H-indazol-5-ylmethoxy)-2H-chromene-3-ylmethyl]-piperidin-4-carboxylic acid] gave an EC50 of 17.4 nM.
For `CCc1nn(C(C)C)c2ccc(COc3ccc4c(c3)OCC(CN3CCC(C(=O)O)CC3)=C4)cc12` [Example 14, 1-[7-(1-H-isopropyl-3-ethyl-1H-indazol-5-ylmethoxy)-2H-chromene-3-ylmethyl]-piperidin-4-carboxylic acid], the EC50 was 12 nM.
Compound `CC(C)n1nc(Cl)c2cc(COc3ccc4c(c3)OCC(CN3CCCC(C(=O)O)CC3)=C4)ccc21` (stereo not drawn) [Example 15, 1-[7-(3-chloro-1-isopropyl-1H-indazol-5-ylmethoxy)-2H-chromene-3-ylmethyl]-azepane-4-carboxylic acid] has an EC50 of 6.31 nM.
`CCCn1nc(Cl)c2cc(COc3ccc4c(c3)OCC(CN3CC(C(=O)O)C3)=C4)ccc21` [Example 16, 1-[7-(3-chloro-1-propyl-1H-indazol-5-ylmethoxy)-2H-chromene-3-ylmethyl]-azetidin-3-carboxylic acid] gave an EC50 of 43.6 nM.
In the case of `CCCn1nc(Cl)c2cc(COc3ccc4c(c3)OCC(CN3CCC(C(=O)O)CC3)=C4)ccc21` [Example 17, 1-[7-(3-chloro-1-propyl-1H-Indazol-5-ylmethoxy)-2H-chromene-3-ylmethyl]-piperidin-4-carboxylic acid], the EC50 is reported as 20.9 nM.
With `O=C(O)C1CCN(CC2=Cc3ccc(OCc4ccc5c(c4)c(Cl)nn5CC4CC4)cc3OC2)CC1` [Example 18, 1-[7-(3-chloro-1-cyclopropylmethyl-1H-indazol-5-ylmethoxy)-2H-chromene-3-ylmethyl]-piperidin-4-carboxylic acid] the EC50 was 64.6 nM.
For `O=C(O)C1CCN(CC2=Cc3c(F)cc(OCc4ccc5c(c4)c(Cl)nn5C4CCCC4)cc3OC2)CC1` [Example 19, 1-[7-(3-chloro-1-cyclopentyl-1H-indazol-5-ylmethoxy)-5-fluoro-2H-chromene-3-ylmethyl]-piperidin-4-carboxylic acid], the EC50 was 70.8 nM.
Compound `CC(C)Cn1nc(Cl)c2cc(COc3cc(F)c4c(c3)OCC(CN3CCC(C(=O)O)CC3)=C4)ccc21` [Example 20, 1-[7-(3-chloro-1-isobutyl-1H-indazol-5-ylmethoxy)-5-fluoro-2H-chromene-3-ylmethyl]-piperidin-4-carboxylic acid] has an EC50 of 5.13 nM.
`CC(C)Cn1nc(Cl)c2cc(COc3cc(F)c4c(c3)OCC(CN3CCCC(C(=O)O)CC3)=C4)ccc21` (stereo not drawn) [Example 21, 1-[7-(3-chloro-1-Isobutyl-1H-indazol-5-ylmethoxy)-5-fluoro-2H-chromene-3-ylmethyl]-azepane-4-carboxylic acid] showed an EC50 of 14.4 nM.
